# Where a chain is given by its changes, count along the chain named.
# Legend:
# [1] = tested on: TauT^WT and variants; assay: GAA uptake assay; type: cell-based, human; conditions: amino acid substitutions in Gly57, Phe58, Leu306
# [2] = target: T1, TauT^WT and variants (Homo sapiens, UniProt P31641, L134C); assay: GAA uptake assay; type: cell-based; conditions: mutation Leu134Cys
# T1 sequence (P31641 1-620 L134C): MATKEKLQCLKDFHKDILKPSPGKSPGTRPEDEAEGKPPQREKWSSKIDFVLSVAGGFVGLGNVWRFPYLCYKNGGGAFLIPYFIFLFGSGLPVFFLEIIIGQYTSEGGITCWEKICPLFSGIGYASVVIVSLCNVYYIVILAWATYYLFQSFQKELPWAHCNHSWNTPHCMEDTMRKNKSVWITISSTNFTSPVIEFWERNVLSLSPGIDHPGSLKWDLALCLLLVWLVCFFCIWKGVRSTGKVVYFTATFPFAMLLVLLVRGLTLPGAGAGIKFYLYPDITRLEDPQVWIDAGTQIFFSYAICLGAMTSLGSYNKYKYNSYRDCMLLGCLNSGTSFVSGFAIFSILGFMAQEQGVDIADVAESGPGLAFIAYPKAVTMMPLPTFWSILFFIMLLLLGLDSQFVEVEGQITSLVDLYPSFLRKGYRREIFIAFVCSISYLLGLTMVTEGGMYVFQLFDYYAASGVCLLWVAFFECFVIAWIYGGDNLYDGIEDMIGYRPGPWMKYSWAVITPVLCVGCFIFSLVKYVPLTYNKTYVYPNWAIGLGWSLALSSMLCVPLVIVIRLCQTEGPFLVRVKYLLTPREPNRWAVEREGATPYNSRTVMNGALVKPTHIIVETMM
# [3] = target: T2, TauT L306A mutant (Homo sapiens, UniProt P31641, L306A); assay: MST binding, TauT L306A; conditions: mean ± s.e.m., n=3
# T2 sequence (P31641 1-620 L306A): T1 sequence (P31641 1-620 L134C) with C134L, L306A
# [4] = target: T3, TauT F58A mutant (Homo sapiens, UniProt P31641, F58A); assay: MST binding, TauT F58A; conditions: mean ± s.e.m., n=3
# T3 sequence (P31641 1-620 F58A): T1 sequence (P31641 1-620 L134C) with F58A, C134L
# [5] = target: T4, TauT^EM (Homo sapiens, UniProt P31641, D486N/D490E/E493R/G491D/K319H/L488F/N487R/R499P/S322V/Y320N/Y489S/Y498F); assay: MST binding, TauT^EM; conditions: compared with TauT^WT
# T4 sequence (P31641 1-620 K319H/Y320N/S322V/D486N/N487R/L488F/Y489S/D490E/G491D/E493R/Y498F/R499P): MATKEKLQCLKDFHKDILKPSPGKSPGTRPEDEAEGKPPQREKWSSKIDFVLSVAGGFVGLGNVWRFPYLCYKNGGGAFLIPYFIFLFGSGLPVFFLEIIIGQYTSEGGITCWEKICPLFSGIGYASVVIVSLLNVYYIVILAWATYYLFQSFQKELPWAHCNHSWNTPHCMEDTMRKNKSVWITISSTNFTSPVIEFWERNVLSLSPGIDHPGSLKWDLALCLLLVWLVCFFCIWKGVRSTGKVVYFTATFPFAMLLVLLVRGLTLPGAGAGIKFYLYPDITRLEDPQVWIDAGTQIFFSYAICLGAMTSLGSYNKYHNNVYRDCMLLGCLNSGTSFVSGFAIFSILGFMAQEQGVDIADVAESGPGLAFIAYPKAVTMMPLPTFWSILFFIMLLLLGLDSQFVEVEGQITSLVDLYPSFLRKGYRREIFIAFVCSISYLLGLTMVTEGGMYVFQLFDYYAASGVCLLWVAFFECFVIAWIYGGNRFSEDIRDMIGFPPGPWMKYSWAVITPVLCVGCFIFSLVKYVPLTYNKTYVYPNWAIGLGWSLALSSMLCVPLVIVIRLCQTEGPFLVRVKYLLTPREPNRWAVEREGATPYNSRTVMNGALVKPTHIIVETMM
transport activity of GAA [2],Kd (MST) [3],"binding affinity (Kd, MST) of TauT^EM [5]",Compound,transport activity for GAA [1],Kd (MST) [4]
greater transport activity,drastic loss of GAA binding affinity,,"[H]/N=C(/N)NCC(=O)O [GAA, guanidinoacetate]",decrease in transport activity,
,,analogous to those of TauT^WT,"NCCS(=O)(=O)O [Taurine, taurine]",,reduced the taurine binding to varying extents
